Patent publication US20070155795A1, “MUSCARINIC AGONISTS” (ACADIA Pharmaceuticals Inc., priority 2000, published 2007)

Key:
[1] = biological target: T1, m3 muscarinic receptor subtype (Homo sapiens, UniProt P20309); assay: R-SAT assay, muscarinic receptor subtype m3; assay type: cell-based; details: transfected NIH-3T3 cells, 5 days, relative to maximum response to carbachol
T1 construct: expressed in transfected cells; host or cells: NIH-3T3 (ATCC CRL 1658)
Method: (§1) Screening Of Test Compounds In An Assay Using Muscarinic Receptor Subtypes m1, m2, m3, m4 and m5. The m1, m2, m3, m4 and m5 muscarinic receptor subtypes were cloned substantially as described by Bonner et al., Science […] and Bonner et al., Neuron 1:403 (1988). R-SAT assays were carried out substantially as described in U.S. Pat. Nos. 5,707,798, 5,912,132, and 5,955,281, and by Braüner-Osborne & Brann, Eur. J. Pharmacol. 295:93 (1995). NIH-3T3 cells (available from the American Type Culture Collection as ATCC CRL 1658) were transfected with plasmid DNA encoding the m1, m2, m3, m4 or m5 receptors and plasmid DNA encoding β-galactosidase. Transfected cells were grown in the presence of between 1 nM and 40 μM of the test compound for 5 days. On day 5, the cells were lysed using 0.5% Nonidet-P and β-galactosidase expression was quantified using the chromogenic substrate o-nitrophenyl-β-D-galactoside (ONGP).
(§2) Data were normalized relative to the maximum response of the cells to the muscarinic agonist carbachol, and the following equation was fitted to the data: • response=minimum+(maximum−minimum)/(1+(EC50/[ligand])) • Where [ligand]=ligand concentration. • % Efficacy was defined as: • (maximum−minimum)/(maximum response of cells to carbachol). • pEC50=−log (EC50). • Where data gave a bell-shaped curve, “maximum” was defined as the highest observed response.

[2] = biological target: T2, m2 muscarinic receptor subtype (Homo sapiens, UniProt P08172); assay: R-SAT assay, muscarinic receptor subtype m2; assay type: cell-based; details: transfected NIH-3T3 cells, 5 days, relative to maximum response to carbachol
T2 construct: expressed in transfected cells; host or cells: NIH-3T3 (ATCC CRL 1658)
T2 sequence (P08172 1-466): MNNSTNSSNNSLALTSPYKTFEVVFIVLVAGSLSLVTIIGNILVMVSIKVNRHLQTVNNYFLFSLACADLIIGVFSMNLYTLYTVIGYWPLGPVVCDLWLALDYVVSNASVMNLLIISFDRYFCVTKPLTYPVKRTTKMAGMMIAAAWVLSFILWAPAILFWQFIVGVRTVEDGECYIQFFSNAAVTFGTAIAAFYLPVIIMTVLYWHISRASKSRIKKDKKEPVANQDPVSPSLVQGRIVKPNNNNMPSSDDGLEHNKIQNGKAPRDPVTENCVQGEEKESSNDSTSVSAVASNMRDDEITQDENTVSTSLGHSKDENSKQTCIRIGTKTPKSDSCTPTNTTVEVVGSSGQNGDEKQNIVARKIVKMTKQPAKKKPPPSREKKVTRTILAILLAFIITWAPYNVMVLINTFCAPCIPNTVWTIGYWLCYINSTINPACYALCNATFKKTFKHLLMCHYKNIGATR
Method: as §1, §2

[3] = biological target: T3, m5 muscarinic receptor subtype (Homo sapiens, UniProt P08912); assay: R-SAT assay, muscarinic receptor subtype m5; assay type: cell-based; details: transfected NIH-3T3 cells, 5 days; for m5 % Eff: relative to maximum response to carbachol
T3 construct: expressed in transfected cells; host or cells: NIH-3T3 (ATCC CRL 1658)
T3 sequence (P08912 1-532): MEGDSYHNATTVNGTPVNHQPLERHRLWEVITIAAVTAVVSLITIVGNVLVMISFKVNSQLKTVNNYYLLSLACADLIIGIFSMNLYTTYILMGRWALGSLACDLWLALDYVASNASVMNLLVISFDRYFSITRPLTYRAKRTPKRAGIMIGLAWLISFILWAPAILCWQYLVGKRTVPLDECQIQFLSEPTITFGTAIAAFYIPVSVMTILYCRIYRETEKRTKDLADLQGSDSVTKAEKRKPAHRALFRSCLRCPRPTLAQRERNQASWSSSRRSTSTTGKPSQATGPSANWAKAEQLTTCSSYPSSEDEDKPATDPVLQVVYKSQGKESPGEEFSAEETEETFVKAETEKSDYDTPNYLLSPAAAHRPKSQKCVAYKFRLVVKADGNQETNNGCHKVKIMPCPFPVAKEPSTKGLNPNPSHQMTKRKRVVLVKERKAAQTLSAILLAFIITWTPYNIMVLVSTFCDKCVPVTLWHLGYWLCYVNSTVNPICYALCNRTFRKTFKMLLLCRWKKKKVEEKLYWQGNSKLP
Method: as §1, §2

[4] = biological target: T4, m1 muscarinic receptor subtype (Homo sapiens, UniProt P11229); assay: R-SAT assay, muscarinic receptor subtype m1; assay type: cell-based; details: transfected NIH-3T3 cells, 5 days; for m1 % Eff: relative to maximum response to carbachol
T4 construct: expressed in transfected cells; host or cells: NIH-3T3 (ATCC CRL 1658)
T4 sequence (P11229 1-460): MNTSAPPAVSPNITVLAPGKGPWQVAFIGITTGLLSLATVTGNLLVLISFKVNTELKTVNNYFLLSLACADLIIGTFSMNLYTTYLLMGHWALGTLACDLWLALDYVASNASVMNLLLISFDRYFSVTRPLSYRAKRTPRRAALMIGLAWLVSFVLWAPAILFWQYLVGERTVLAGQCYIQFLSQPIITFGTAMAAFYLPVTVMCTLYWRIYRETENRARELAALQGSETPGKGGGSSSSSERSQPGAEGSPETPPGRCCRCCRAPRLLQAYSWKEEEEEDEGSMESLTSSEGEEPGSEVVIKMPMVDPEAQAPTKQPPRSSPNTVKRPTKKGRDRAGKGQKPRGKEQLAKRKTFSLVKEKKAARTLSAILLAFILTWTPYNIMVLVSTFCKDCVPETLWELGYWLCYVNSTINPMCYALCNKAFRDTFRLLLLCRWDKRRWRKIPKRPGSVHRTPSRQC
Method: (§3) Transfected cells were grown in the presence of between 1 nM and 40 μM of the test compound for 5 days. On day 5, the cells were lysed using 0.5% Nonidet-P and β-galactosidase expression was quantified using the chromogenic substrate o-nitrophenyl-β-D-galactoside (ONGP).
as §2

Glaucomatous Monkeys = assay: Intraocular pressure in glaucomatous monkeys (laser-induced unilateral ocular hypertension); assay type: in vivo, cynomolgus monkeys (Macacca fascicularis); details: conscious monkeys
Method: Effects of Compound 35AKU-21 on Intaocular Pressure in Primates. All studies were conducted in fully conscious female cynomolgus monkeys (Macacca fascicularis) weighing 3-4 kg. Unilateral ocular hypertension was produced by argon laser photocoagulation to the mid-trabecular meshwork (Sawyer & McGuigan, Invest. Ophthalmol. Vis. Sci. 29:81(1988)).
Animals were trained to allow measuring intraocular pressure (IOP) with a model 30 Classic pneumatonometer (Mentor O&O Co.). Throughout each study, monkeys sat in specially designed chairs (Primate Products, San Francisco) and fed fruits and juices as needed.
The drug was administered topically. The drug was formulated in an aqueous solution such as distilled water, saline or citrate buffer at a pH 5-7 and applied unilaterally as a 35 μL drop; the contralateral eye received an equal volume of saline (or vehicle). Two baseline measurements were made prior to administration of the drug, followed by periodic measurements up to 6 hours post drug administration.

[5] = biological target: T5, m4 muscarinic receptor subtype (Homo sapiens, UniProt P08173); assay: R-SAT assay, muscarinic receptor subtype m4; assay type: cell-based; details: transfected NIH-3T3 cells, 5 days; for m4 % Eff: relative to maximum response to carbachol
T5 construct: expressed in transfected cells; host or cells: NIH-3T3 (ATCC CRL 1658)
T5 sequence (P08173 1-479): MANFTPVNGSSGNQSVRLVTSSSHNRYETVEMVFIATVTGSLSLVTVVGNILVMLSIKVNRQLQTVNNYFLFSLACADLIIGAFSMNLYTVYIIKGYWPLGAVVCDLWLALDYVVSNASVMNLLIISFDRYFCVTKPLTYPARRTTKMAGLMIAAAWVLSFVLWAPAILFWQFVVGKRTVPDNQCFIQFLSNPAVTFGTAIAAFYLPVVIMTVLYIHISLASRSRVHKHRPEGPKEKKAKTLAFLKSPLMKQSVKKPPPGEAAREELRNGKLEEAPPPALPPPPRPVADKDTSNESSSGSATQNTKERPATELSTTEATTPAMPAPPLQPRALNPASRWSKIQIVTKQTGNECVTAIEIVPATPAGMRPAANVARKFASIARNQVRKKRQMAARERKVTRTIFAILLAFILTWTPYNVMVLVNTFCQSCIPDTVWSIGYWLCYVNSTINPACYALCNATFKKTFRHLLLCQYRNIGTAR
Method: as §3, §2

[6] = in vivo; cited from earlier work

T1 sequence (P20309 whole entry): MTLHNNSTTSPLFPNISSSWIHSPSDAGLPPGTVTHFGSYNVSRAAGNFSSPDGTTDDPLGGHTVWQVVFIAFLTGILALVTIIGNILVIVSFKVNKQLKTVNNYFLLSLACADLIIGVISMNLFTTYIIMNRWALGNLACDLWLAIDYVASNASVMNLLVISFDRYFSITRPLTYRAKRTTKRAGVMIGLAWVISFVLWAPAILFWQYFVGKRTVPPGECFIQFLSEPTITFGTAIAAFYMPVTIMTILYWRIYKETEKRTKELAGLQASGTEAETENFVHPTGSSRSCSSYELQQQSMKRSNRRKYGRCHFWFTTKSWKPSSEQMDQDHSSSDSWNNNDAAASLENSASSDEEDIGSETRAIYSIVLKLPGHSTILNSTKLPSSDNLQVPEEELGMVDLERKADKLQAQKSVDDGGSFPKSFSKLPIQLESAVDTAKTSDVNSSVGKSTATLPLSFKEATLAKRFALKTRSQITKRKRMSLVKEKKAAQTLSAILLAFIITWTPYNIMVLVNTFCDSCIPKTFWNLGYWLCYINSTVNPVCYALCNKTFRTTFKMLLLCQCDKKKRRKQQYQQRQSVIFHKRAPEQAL

Compound | m1 pEC50 [4] | m1 % Eff [4] | m4 pEC50 [5] | m4 % Eff [5] | EC50 ([3]; read-out: m5 pEC50 (converted)) | EC50 ([4]; read-out: m1 pEC50 (converted)) | EC50 ([5]; read-out: m4 pEC50 (converted)) | m3 % Eff [1] | m2 % Eff [2] | m5 % Eff [3] | % IOP Change (Glaucomatous Monkeys; 1 HR after topical 35 μL drop) | % IOP Change (Glaucomatous Monkeys; 2 HR after topical 35 μL drop) | % IOP Change (Glaucomatous Monkeys; 4 HR after topical 35 μL drop) | % IOP Change (Glaucomatous Monkeys; 6 HR after topical 35 μL drop) | patients with elevated liver transaminases (hepatotoxicity) [6]
CCCCC1CCN(CCCc2nc3c(C)cccc3[nH]2)CC1 [Example 32, 4-Methyl-2-(3-(4-n-butylpiperidine)-1-yl-propyl)-1H-benzoimidazole] | 6.4 | 52% | – | no response (No response: Efficacy <25% maximum response of carbachol. This level of activity is not considered significantly different to no response.) | – | – | – | no response (No response: Efficacy <25% maximum response of carbachol. This level of activity is not considered significantly different to no response.) | no response (No response: Efficacy <25% maximum response of carbachol. This level of activity is not considered significantly different to no response.) | no response (No response: Efficacy <25% maximum response of carbachol. This level of activity is not considered significantly different to no response.) | – | – | – | – | –
CCCCC1CCN(CCCc2n[nH]c3ccccc23)CC1.Cl [Example 89, 3-[3-(4-Butyl-piperidine-1-yl)-propyl]1-H-indazole, HCl] | 7.3 | 85% | 6.8 | 53% | – | – | – | no response (No response: Efficacy <25% maximum response of carbachol. This level of activity is not considered significantly different to no response.) | no response (No response: Efficacy <25% maximum response of carbachol. This level of activity is not considered significantly different to no response.) | no response (No response: Efficacy <25% maximum response of carbachol. This level of activity is not considered significantly different to no response.) | – | – | – | – | –
Nc1c2c(nc3ccccc13)CCCC2 [tacrine] | – | – | – | – | – | – | – | – | – | – | – | – | – | – | about 30%

Second part, led by results:

m1 pEC50 [4] | m1 % Eff [4] | m4 pEC50 [5] | m4 % Eff [5] | EC50 ([3]; read-out: m5 pEC50 (converted)) | EC50 ([4]; read-out: m1 pEC50 (converted)) | EC50 ([5]; read-out: m4 pEC50 (converted)) | Compound | m3 % Eff [1] | m2 % Eff [2] | m5 % Eff [3] | % IOP Change (Glaucomatous Monkeys; 1 HR after topical 35 μL drop) | % IOP Change (Glaucomatous Monkeys; 2 HR after topical 35 μL drop) | % IOP Change (Glaucomatous Monkeys; 4 HR after topical 35 μL drop) | % IOP Change (Glaucomatous Monkeys; 6 HR after topical 35 μL drop) | patients with elevated liver transaminases (hepatotoxicity) [6]
7.3 | 86% | 6.5 | 70% | – | – | – | CCCCC1CCN(CCCn2ncc3ccccc32)CC1 [Example 19, 1-(3-(4-n-Butylpiperidine)-1-yl-propyl)-4H-indazole] | no response (No response: Efficacy <25% maximum response of carbachol. This level of activity is not considered significantly different to no response.) | no response (No response: Efficacy <25% maximum response of carbachol. This level of activity is not considered significantly different to no response.) | no response (No response: Efficacy <25% maximum response of carbachol. This level of activity is not considered significantly different to no response.) | −9.3% | −21.3% | −25.9% | −29.2% | –
– | 81% | – | 69% | > 3160 nM | 126 nM | 631 nM | CCCC1CCN(CCCn2ncc3ccccc32)CC1 [Example 41, 1-(3-(4-Propylpiperidine)-1-yl-propyl)-1H-indazole] | no response (No response: Efficacy <25% maximum response of carbachol. This level of activity is not considered significantly different to no response.) | no response (No response: Efficacy <25% maximum response of carbachol. This level of activity is not considered significantly different to no response.) | 31% | – | – | – | – | –
6.3 | 59% | 6.0 | 39% | – | – | – | CCCCC1CCN(CCCn2nnc3ccccc32)CC1 [Example 61, 1-[3-(4-Butylpiperidin-1-yl)-propyl]-1H-benzotriazole] | no response (No response: Efficacy <25% maximum response of carbachol. This level of activity is not considered significantly different to no response.) | no response (No response: Efficacy <25% maximum response of carbachol. This level of activity is not considered significantly different to no response.) | no response (No response: Efficacy <25% maximum response of carbachol. This level of activity is not considered significantly different to no response.) | – | – | – | – | –
